Reference: patent US11279703B2, “Fused pyrimidine compounds as BRD4 and JAK2 dual inhibitors and methods for use thereof” (APTOSE BIOSCIENCES INC., priority 2016, dated 2022)

What was measured:
BRD4-BD1 = BRD4-BD1 (Homo sapiens (Human), UniProt O60885); assay: AlphaLisa bromodomain binding assay, BRD4-BD1; conditions: Table 6; read-out: BRD4(1) IC50
BRD4-BD2 = BRD4-BD2 (Homo sapiens (Human), UniProt O60885); assay: AlphaLisa bromodomain binding assay, BRD4-BD2; conditions: Table 6; read-out: BRD4(2) IC50
Description: (§1) An AlphaLisa assay was used to observe bromodomain binding and measure IC50s for the compounds disclosed herein. An AlphaLisa assay is a bead-based assay used to detect interactions between bromodomains and polyacetylated histone peptides. Donor and acceptor beads bound to target and ligand are brought into proximity by this protein-protein interaction.
(§2) Equipment Required • 1. […] Plate centrifuge • 3. Plate shaker • 4. […] Single channel and multi-channel pipettes • 6. Microplate reader (Pherastar)
(§3) Stock and Final Assay Concentrations (FAC) • 1. All reference and test compounds are made at a concentration of 10 mM in DMSO. Compounds are serially diluted in DMSO and a FAC starting from 10 μM to 10 point 3 fold serial dilutions is arrived. FAC of DMSO is 1%. • 2. Enzyme stock and FAC
(§4) Biotinylated substrate (Acetylated histone H4, biotinylated substrate—cat no. AS64989-025, Anaspec) stock and FAC
(§5) • 4. Acceptor and donor beads stock and FAC
(§6) Buffers • For the enzyme and substrate dilution following buffer is used (for 50 ml) • HEPES: 50 mM 2.5 ml • NaCl: 25 mM 1.25 ml • DTT: 10 mM 0.05 ml • BSA: 0.1% 0.05 g • MilliQ water: 45.7 ml • For dilution of acceptor and donor beads AlphaLISA 5× epigenetics Buffer Perkin Elmer (Cat: AL008C) is used at 1× concentration.
(§7) Procedure • 1. […] Tap the plate gently • 3. […] Cover with plate sealer • 5. […] Incubate the plate at room temperature for 10 minutes • 7. Add 10 μl of the substrate • 8. Cover with plate sealer • 9. […] Cover with plate sealer • 14. […] Cover with plate sealer • 18.
(§8) The percent inhibition is calculated in the excel analysis template and the IC50 values are subsequently determined using a sigmoidal dose-response curve (variable slope) using GraphPad Prism® 5 software.

BRD2-BD1 = BRD2-BD1 (Homo sapiens (Human), UniProt P25440); assay: AlphaLisa bromodomain binding assay, BRD2-BD1; conditions: Table 6; read-out: BRD2(1) IC50
Description: as §1, §2, §3, §4, §5, §6, §7, §8

BRD3-BD1 = BRD3-BD1 (Homo sapiens (Human), UniProt Q15059); assay: AlphaLisa bromodomain binding assay, BRD3-BD1; conditions: Table 6; read-out: BRD3(1) IC50
Description: as §1, §2, §3, §4, §5, §6, §7, §8

BRDT-BD1 = BRDT-BD1 (Homo sapiens (Human), UniProt Q58F21); assay: AlphaLisa bromodomain binding assay, BRDT-BD1; conditions: Table 6; read-out: BRDT(1) IC50
Description: as §1, §2, §3, §4, §5, §6, §7, §8

JAK2 = JAK2 (Homo sapiens (Human), UniProt O60674); assay: HTRF kinase assay, JAK2; format: biochemical; conditions: Table 6
Chain of JAK2 (O60674 whole entry): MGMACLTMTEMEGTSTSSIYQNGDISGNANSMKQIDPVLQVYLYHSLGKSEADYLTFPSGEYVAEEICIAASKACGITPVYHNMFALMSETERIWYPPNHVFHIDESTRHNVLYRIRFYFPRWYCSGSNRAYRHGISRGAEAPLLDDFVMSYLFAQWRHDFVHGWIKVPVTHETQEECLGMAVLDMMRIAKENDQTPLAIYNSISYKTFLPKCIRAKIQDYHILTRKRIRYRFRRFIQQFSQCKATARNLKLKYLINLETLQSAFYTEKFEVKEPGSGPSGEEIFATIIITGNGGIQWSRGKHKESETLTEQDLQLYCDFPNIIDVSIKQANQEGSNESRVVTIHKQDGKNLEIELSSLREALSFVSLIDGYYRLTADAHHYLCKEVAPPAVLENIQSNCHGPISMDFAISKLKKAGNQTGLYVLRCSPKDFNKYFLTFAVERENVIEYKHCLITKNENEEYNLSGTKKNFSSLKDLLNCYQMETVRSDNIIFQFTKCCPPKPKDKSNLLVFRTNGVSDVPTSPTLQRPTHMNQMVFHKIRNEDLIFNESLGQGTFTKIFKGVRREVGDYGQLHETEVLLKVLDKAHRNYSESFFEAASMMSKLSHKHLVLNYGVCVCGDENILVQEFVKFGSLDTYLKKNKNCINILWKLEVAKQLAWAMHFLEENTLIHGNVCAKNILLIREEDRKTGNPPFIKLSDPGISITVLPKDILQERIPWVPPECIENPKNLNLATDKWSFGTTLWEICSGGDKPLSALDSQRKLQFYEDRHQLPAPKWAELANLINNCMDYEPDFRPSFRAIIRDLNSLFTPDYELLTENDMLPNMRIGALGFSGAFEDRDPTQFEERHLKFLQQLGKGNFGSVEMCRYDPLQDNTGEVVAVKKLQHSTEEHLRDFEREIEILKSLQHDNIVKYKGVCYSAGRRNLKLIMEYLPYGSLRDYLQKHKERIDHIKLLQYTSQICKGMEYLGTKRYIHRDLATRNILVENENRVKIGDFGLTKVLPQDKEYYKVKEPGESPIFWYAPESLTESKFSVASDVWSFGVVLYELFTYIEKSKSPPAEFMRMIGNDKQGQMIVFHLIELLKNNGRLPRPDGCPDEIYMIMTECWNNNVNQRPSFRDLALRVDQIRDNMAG

Chain of BRD2-BD1 (P25440 74-180): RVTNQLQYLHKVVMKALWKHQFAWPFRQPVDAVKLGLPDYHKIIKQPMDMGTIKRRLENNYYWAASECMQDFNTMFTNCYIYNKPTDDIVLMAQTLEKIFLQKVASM
Chain of BRD3-BD1 (Q15059 34-140): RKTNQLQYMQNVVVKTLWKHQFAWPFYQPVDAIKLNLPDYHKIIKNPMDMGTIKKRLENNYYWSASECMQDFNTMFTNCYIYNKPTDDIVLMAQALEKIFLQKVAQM

| IC50 (BRD4-BD1) | IC50 (BRD4-BD2) | IC50 (BRD2-BD1) | IC50 (BRD3-BD1) | IC50 (BRDT-BD1) | IC50 (JAK2) | Compound |
| --- | --- | --- | --- | --- | --- | --- |
| 0.16 µM | 0.293 µM | 0.776 µM | 0.331 µM | – | – | CN1CCC(Nc2nc(Nc3ccc4c(c3)N(S(=O)(=O)C(C)(C)C)CC4)c3ccsc3n2)CC1 [drawing 204] |
| – | 1 µM | 1.77 µM | 2.47 µM | – | – | CN1CCN(c2ccc(Nc3nc4c(c(Nc5cccc(NS(=O)(=O)C(C)(C)C)c5)n3)COC4)cc2)CC1 [drawing 206] |
| 0.47 µM | 1.13 µM | 0.636 µM | 3.2 µM | 1.8 µM | – | Cc1ccc(Nc2nc(Nc3ccc(N4CCN(C)CC4)cc3)nc3ccccc23)cc1NS(=O)(=O)C(C)(C)C |
| 0.094 µM | 0.309 µM | 0.458 µM | 0.248 µM | – | – | CC(C)(C)S(=O)(=O)Nc1cccc(Nc2nc(NC3CCNCC3)nc3sccc23)c1 [drawing 203] |
| 0.22 µM | 0.073 µM | 0.448 µM | 0.366 µM | 0.23 µM | 0.007 µM | Cc1cnc(Nc2ccc(N3CCN(C)CC3)cc2)nc1Nc1cccc(NS(=O)(=O)C(C)(C)C)c1 [drawing 271] |
| 0.21 µM | 0.013 µM | 0.373 µM | 0.213 µM | – | 0.01 µM | Cc1cnc(Nc2ccc(N3CCN(C)CC3)cc2)nc1Nc1cccc(NS(=O)(=O)C(C)(C)C)c1 [drawing 205] |
| 10 µM | – | – | – | – | 0.054 µM | CN1CCN(c2ccc(Nc3ncc4ccn(-c5cccc(NC(=O)C(C)(C)C)c5)c4n3)cc2)CC1 |
| 0.138 µM | – | – | – | – | 0.01 µM | Cc1cnc(Nc2ccc(N3CCN(C)CC3)cc2)nc1Nc1cccc(NS(=O)(=O)C(C)(C)C)c1 [drawing 384] |
| 0.421 µM | – | – | – | – | 0.002 µM | COc1cc(Nc2ncc3ccn(-c4cccc(NS(=O)(=O)C(C)(C)C)c4)c3n2)ccc1N1CCC(N(C)C)CC1 |
| 0.356 µM | – | – | – | – | 0.004 µM | COc1cc(Nc2ncc3scc(-c4cccc(NS(=O)(=O)C(C)(C)C)c4)c3n2)ccc1N1CCNCC1 |
| 0.641 µM | – | – | – | – | 0.176 µM | Cc1ccc(-n2ccc3cnc(Nc4ccc(N5CCNCC5)cc4)nc32)cc1NS(=O)(=O)C(C)(C)C |
| 0.234 µM | – | – | – | – | 0.029 µM | CNC1CCN(C(=O)c2ccc(Nc3ncc4ccn(-c5cccc(NS(=O)(=O)C(C)(C)C)c5)c4n3)cc2F)CC1 |
| 2.86 µM | – | – | – | – | 4.65 µM | CN1CCN(c2ccc(Nc3cc(Nc4cccc(NS(=O)(=O)C(C)(C)C)c4)c4sccc4n3)cc2)CC1 |
| 0.776 µM | – | – | – | – | 0.035 µM | CN1CCC(NC(=O)c2ccc(Nc3ncc4ccn(-c5ccc(F)c(NS(=O)(=O)C6CC6)c5)c4n3)cc2F)CC1 |
| 1.13 µM | – | – | – | – | 0.008 µM | CN1CCN(c2ccc(Nc3ncc4ccn(-c5cccc(NS(=O)(=O)C(C)(C)C)c5)c4n3)cc2Cl)CC1 |
| 1.6 µM | – | – | – | – | 2.8 µM | COc1cc(N2CCN(C)CC2)ccc1Nc1ncc2ccn(-c3cccc(NS(=O)(=O)C(C)(C)C)c3)c2n1 |
| 10 µM | – | – | – | – | 10 µM | CC1CNCC(C)C1Nc1nc(Nc2cccc(NS(=O)(=O)C(C)(C)C)c2)c2ccsc2n1 (stereo not shown) |
| 0.125 µM | – | – | – | – | 0.076 µM | CC(C)(C)S(=O)(=O)Nc1cc(-n2ccc3cnc(Nc4ccc(N5CCNCC5)c(F)c4)nc32)ccc1F [drawing 430] |
| 2.33 µM | – | – | – | – | 0.003 µM | Cc1noc(C)c1-c1cccc(-n2ccc3cnc(Nc4ccc(N5CCN(C)CC5)cc4)nc32)c1 [drawing 285] |
| 0.295 µM | – | – | – | – | 0.142 µM | CC(C)(C)S(=O)(=O)Nc1cc(-n2ccc3cnc(Nc4ccc(N5CCNC(=O)C5)c(F)c4)nc32)ccc1F |
| 0.22 µM | – | – | – | – | 0.007 µM | CNCC1CCN(c2ccc(Nc3ncc4ccn(-c5cccc(NS(=O)(=O)C(C)(C)C)c5)c4n3)cc2F)CC1 |
| 8.3 µM | – | – | – | – | 0.12 µM | CC(C)S(=O)(=O)N1CCN(c2ccc(Nc3ncc4ccn(-c5cccc(NS(=O)(=O)C(C)(C)C)c5)c4n3)cc2)CC1 |
| 0.94 µM | – | – | – | – | 10 µM | CN1CCC(Nc2nc(Nc3cccc(N(C)S(=O)(=O)C(C)(C)C)c3)c3ccsc3n2)CC1 |
| 0.735 µM | – | – | – | – | 0.123 µM | CNC(=O)C1CCN(c2ccc(Nc3ncc4ccn(-c5ccc(F)c(NS(=O)(=O)C(C)(C)C)c5)c4n3)cc2F)CC1 |
| 2.2 µM | – | – | – | – | 0.031 µM | Cc1ccc(-n2ccc3cnc(Nc4ccc(N5CCNCC5)cc4)nc32)cc1NS(=O)(=O)C1CC1 |
| 0.248 µM | – | – | – | – | 0.0096 µM | CC(C)(C)S(=O)(=O)Nc1cccc(-n2ccc3cnc(Nc4ccc(N5CCNCC5)c(F)c4)nc32)c1 [drawing 431] |

| IC50 (BRD4-BD1) | IC50 (BRD4-BD2) | IC50 (BRD2-BD1) | IC50 (BRD3-BD1) | IC50 (BRDT-BD1) | IC50 (JAK2) | Compound |
| --- | --- | --- | --- | --- | --- | --- |
| 1.81 µM | – | – | – | – | 0.015 µM | COc1cc(Nc2ncc3ccn(-c4cccc(NS(=O)(=O)C5CC5)c4)c3n2)ccc1N1CCN(C)CC1 |
| 0.298 µM | – | – | – | – | 0.012 µM | CNC1CCN(C(=O)c2ccc(Nc3ncc4scc(-c5cccc(NS(=O)(=O)C(C)(C)C)c5)c4n3)cc2F)CC1 |
| 10 µM | – | – | – | – | 10 µM | CN1CCN(c2ccc(Nc3nc(-n4ccc(C(=O)NC5CC5)c4)c4ccsc4n3)cc2F)CC1 |
| 0.211 µM | – | – | – | – | 0.012 µM | Cc1cnc(Nc2ccc(N3CCN(C)CC3)cc2)nc1Nc1cccc(NS(=O)(=O)C(C)(C)C)c1 [drawing 114] |
| 0.123 µM | – | – | – | – | 0.17 µM | CN(C)C1CCN(C(=O)c2ccc(Nc3ncc4ccn(-c5ccc(F)c(NS(=O)(=O)C(C)(C)C)c5)c4n3)cc2F)CC1 |
| 1.8 µM | – | – | – | – | 0.008 µM | CN1CCN(c2ccc(Nc3ncc4ccn(-c5cccc(NS(=O)(=O)C6CC6)c5)c4n3)cc2)CC1 [drawing 356] |
| 0.766 µM | – | – | – | – | 0.005 µM | CC(C)(C)S(=O)(=O)Nc1cccc(-c2csc3cnc(Nc4cc(F)c5c(c4)CC4CNCCN54)nc23)c1 (stereo not shown) |
| 1.21 µM | – | – | – | – | 10 µM | CC(C)(C)S(=O)(=O)Nc1cccc(Nc2nc(NC3CCNC(=O)C3)nc3sccc23)c1 (stereo not shown) |
| 3.03 µM | – | – | – | – | 10 µM | CC(C)(C)S(=O)(=O)Nc1cccc(Nc2nc(NC3CCN(C(N)=O)CC3)nc3sccc23)c1 |
| 1.02 µM | – | – | – | – | 0.0082 µM | CC(C)S(=O)(=O)Nc1cccc(-n2ccc3cnc(Nc4ccc(N5CCN(C)CC5)cc4)nc32)c1 |
| 10 µM | – | – | – | – | 10 µM | CN1CCN(c2ccc(Nc3ccc4ccn(-c5cccc(NS(=O)(=O)C(C)(C)C)c5)c4n3)cc2)CC1 |
| 6.3 µM | 5.3 µM | 0.79 µM | 8.4 µM | – | – | COc1cc(Nc2nc(Nc3ccc(N4CCN(C)CC4)cc3)nc3ccccc23)ccc1Cl |
| 0.357 µM | – | – | – | – | 0.006 µM | CNC1CCN(c2ccc(Nc3ncc4ccn(-c5cccc(NS(=O)(=O)C(C)(C)C)c5)c4n3)cc2F)CC1 |
| 0.649 µM | – | – | – | – | 0.024 µM | CC(C)(C)S(=O)(=O)Nc1cccc(-n2ccc3cnc(Nc4ccc(C(=O)NC5CCNCC5)cc4)nc32)c1 |
| 10 µM | – | – | – | – | 0.14 µM | CC(=O)N1CCC(c2ccc(Nc3ncc4ccn(-c5cccc(NS(=O)(=O)C6CC6)c5)c4n3)cc2)CC1 |
| 0.771 µM | – | – | – | – | 0.028 µM | CN1CCN(C(=O)c2ccc(Nc3ncc4ccn(-c5cccc(NS(=O)(=O)C(C)(C)C)c5)c4n3)cc2)CC1 |
| 2.72 µM | – | – | – | – | 0.051 µM | CN1CCC(c2ccc(Nc3ncc4ccn(-c5cccc(NS(=O)(=O)C6CC6)c5)c4n3)cc2)CC1 |
| 1.1 µM | – | – | – | – | 0.009 µM | CN1CCN(c2ccc(Nc3ncc4ccn(-c5cccc(N(C)S(=O)(=O)C(C)(C)C)c5)c4n3)cc2)CC1 |
| 3.27 µM | – | – | – | – | 10 µM | CC(C)(C)S(=O)(=O)Nc1cc(Nc2nc(NC3CCNCC3)nc3ccsc23)ccc1Cl |
| 0.258 µM | – | – | – | – | 0.082 µM | CN(C)C1CCN(c2ccc(Nc3ncc4ccn(-c5ccc(F)c(NS(=O)(=O)C(C)(C)C)c5)c4n3)cc2)CC1 |
| 0.28 µM | – | – | – | – | 0.009 µM | Cc1cnc(Nc2ccc(N3CCN(C)CC3)cc2)nc1Nc1cccc(NS(=O)(=O)C(C)(C)C)c1 [drawing 292] |
| 0.284 µM | – | – | – | – | 1000 µM | CN1CCC(Nc2ncc3ccn(-c4cccc(NS(=O)(=O)C(C)(C)C)c4)c3n2)CC1 |
| 10 µM | – | – | – | – | 10 µM | CC(C)(C)S(=O)(=O)Nc1cccc(Nc2nc(NC3CCNCC3)nc3[nH]ccc23)c1 |
| 0.278 µM | – | – | – | – | 0.0066 µM | Cc1cnc(Nc2ccc(N3CCN(C)CC3)cc2)nc1Nc1cccc(NS(=O)(=O)C(C)(C)C)c1 [drawing 353] |
| 0.297 µM | – | – | – | – | 0.004 µM | CN(C)C1CCN(c2ccc(Nc3ncc4scc(-c5cccc(NS(=O)(=O)C(C)(C)C)c5)c4n3)cc2F)CC1 |
| 0.538 µM | – | – | – | – | 0.017 µM | CNC1CCN(c2ccc(Nc3ncc4ccn(-c5cccc(NS(=O)(=O)C(C)(C)C)c5)c4n3)cc2)C1 (stereo not shown) |
